Experimental data: patent US10894036B2, “Use of marizomib for the treatment of central nervous system (CNS) cancers” (Celgene International II Sàrl, priority 2016, dated 2021)
Entries after “also recorded” stand apart in the source; their conditions may differ. Like-named read-outs stand apart in the source and are kept apart here.

Assays:
[1] = BEV serum pharmacokinetics (Phase 1 MRZ + BEV); assay type: in vivo, human; details: for BEV pharmacokinetic parameters: effect of co-administration: with MRZ
Description: The drugs were infused on 28-Day Cycles. Tumor response is assessed every other cycle by RANO criteria.

recurrent glioma = details: cited from earlier work; for 6 mo OS / 6 mo PFS / 9 mo OS / 9 mo PFS: BEV monotherapy
[2] = BEV 10 mg/kg IV, serum, C1D15, marizomib 0.7 mg/m^2 cohort
[3] = BEV 10 mg/kg IV, serum, C1D15, marizomib 0.8 mg/m^2 cohort
[4] = BEV 10 mg/kg IV, serum, C1D15, marizomib […]^2 cohort
[5] = BEV PK, C1D15, MRZ 0.7 mg/m^2 cohort (17 May 2016)
[6] = BEV PK, C1D15, MRZ 0.7 mg/m^2 cohort (Table 43)
[7] = BEV PK, C1D15, MRZ 0.8 mg/m^2 cohort (17 May 2016)
[8] = BEV PK, C1D15, MRZ 0.8 mg/m^2 cohort (Table 43)
[9] = across all dose cohorts, BEV 10 mg/kg with MRZ
[10] = BELOB Trial, BEV monotherapy (Taal et al., 2014)
[11] = BELOB trial BEV monotherapy arm (Taal et al., 2014)
[12] = Heiland (Freiburg, Germany), All Pts
[13] = Heiland (Freiburg, Germany), Methylated
[14] = Heiland (Freiburg, Germany), Unmethylated MGMT promoter
[15] = Taal (BELOB), Unmethylated MGMT promoter
[16] = Wick (EORTC 26101 P2), Methylated
[17] = Wick (EORTC 26101 P2), Unmethylated MGMT promoter

bevacizumab [reference compound]
Cmax D1 ([1]; BEV 10 mg/kg IV, serum, C1D1, marizomib 0.7 mg/m^2 cohort): 193 ± 8 (2) μg/mL | Cmax D1 ([1]; BEV 10 mg/kg IV, serum, C1D1, marizomib 0.8 mg/m^2 cohort): 267 ± 13.3 (3) μg/mL | Cmax D1 ([1]; BEV 10 mg/kg IV, serum, C1D1, marizomib […]^2 cohort): 275 ± 37.5 (6) μg/mL | Cmax D15 [1, 2]: 402 ± 123 (3) μg/mL | Cmin D15 [1, 2]: 81.1 ± 17.4 (2) μg/mL | Cmax D15 [1, 3]: 380 ± 56.5 (2) μg/mL | Cmin D15 [1, 3]: 85.0 ± 9.87 (3) μg/mL | Cmax D15 [1, 4]: 351 ± 46.6 (5) μg/mL | Cmin D15 [1, 4]: 89.7 ± 6.2 (6) μg/mL | Cmax D1 ([1]; BEV PK, C1D1, MRZ 0.7 mg/m^2 cohort (17 May 2016)): 282 ± 89 (3) μg/mL | Cmax D1 ([1]; BEV PK, C1D1, MRZ 0.7 mg/m^2 cohort (Table 43)): 193 ± 8 (2) μg/mL | Cmax D1 ([1]; BEV PK, C1D1, MRZ 0.8 mg/m^2 cohort (17 May 2016)): 267 ± 133 (3) μg/mL | Cmax D1 ([1]; BEV PK, C1D1, MRZ 0.8 mg/m^2 cohort (Table 43)): 267 ± 13.3 (3) μg/mL | Cmax D15 [1, 5]: 402 ± 123 (3) μg/mL | Cmin D15 [1, 5]: 114 ± 34 (3) μg/mL | Cmax D15 [1, 6]: 402 ± 123 (3) μg/mL | Cmin D15 [1, 6]: 81.1 ± 17.4 (2) μg/mL | Cmax D15 [1, 7]: 404 ± 40 (3) μg/mL | Cmin D15 [1, 7]: 85 ± 9.9 (3) μg/mL | Cmax D15 [1, 8]: 380 ± 56.5 (2) μg/mL | Cmin D15 [1, 8]: 85.0 ± 9.87 (3) μg/mL | Mean Day 15 Cmax of BEV ([1]; Study 108, BEV 10 mg/kg with MRZ): 379 µg/mL | mean Cmax of bevacizumab on Day 1 [1, 9]: 275 µg/mL | mean Cmax of bevacizumab on Day 1 (second value so printed) [1, 9]: 379 µg/mL | mean Cmin of bevacizumab on Day 15 [1, 9]: 95 µg/mL | BEV pharmacokinetic parameters: effect of co-administration [1]: not affected by co-administration | BEV pharmacokinetic parameters: effect of co-administration ([1]; listed as BEV): no effect of MRZ on BEV pharmacokinetics; also recorded: not affected by co-administration of MRZ | 6 Months PFS, all patients (recurrent glioma; [10]): 16% | 6 Months PFS, uMGMT Promoter (recurrent glioma; [10]): 8% | 6 mo PFS, All (recurrent glioma; [11]): 16% | 6 mo PFS, uMGMT Promoter (recurrent glioma; [11]): 8% | 6 mo OS (recurrent glioma; Field (CABARET), All Pts): 61% | 6 mo PFS (recurrent glioma; Field (CABARET), All Pts): 18% | 9 mo OS (recurrent glioma; Field (CABARET), All Pts): 39% | 9 mo PFS (recurrent glioma; Field (CABARET), All Pts): 6% | 6 mo Overall Survival, All Pts (recurrent glioma; Field (CABARET)): 61% | 6 mo Progression Free Survival, All Pts (recurrent glioma; Field (CABARET)): 18% | 9 mo Overall Survival, All Pts (recurrent glioma; Field (CABARET)): 39% | 9 mo Progression Free Survival, All Pts (recurrent glioma; Field (CABARET)): 6% | 12 Mo. Overall Survival, All Pts (recurrent glioma; Field (CABARET)): 24% | 6 mo OS (recurrent glioma; [12]): 18% | 9 mo OS (recurrent glioma; [12]): 30% | 9 mo PFS (recurrent glioma; [12]): 0% | 6 mo OS (recurrent glioma; [13]): 58% | 6 mo PFS (recurrent glioma; [13]): 38% | 9 mo OS (recurrent glioma; [13]): 40% | 9 mo PFS (recurrent glioma; [13]): 22% | 6 mo OS (recurrent glioma; [14]): 25% | 6 mo PFS (recurrent glioma; [14]): 10% | 9 mo PFS (recurrent glioma; [14]): 0% | 6 mo Overall Survival, All Pts (recurrent glioma; Heiland (Freiburg, Germany)): 18% | 6 mo Overall Survival, Methylated (recurrent glioma; Heiland (Freiburg, Germany)): 58% | 6 mo Overall Survival, Unmethylated (recurrent glioma; Heiland (Freiburg, Germany)): 25% | 6 mo Progression Free Survival, Methylated (recurrent glioma; Heiland (Freiburg, Germany)): 38% | 6 mo Progression Free Survival, Unmethylated (recurrent glioma; Heiland (Freiburg, Germany)): 10% | 9 mo Overall Survival, All Pts (recurrent glioma; Heiland (Freiburg, Germany)): 30% | 9 mo Overall Survival, Methylated (recurrent glioma; Heiland (Freiburg, Germany)): 40% | 9 mo Progression Free Survival, All Pts (recurrent glioma; Heiland (Freiburg, Germany)): 0% | 9 mo Progression Free Survival, Methylated (recurrent glioma; Heiland (Freiburg, Germany)): 22% | 9 mo Progression Free Survival, Unmethylated (recurrent glioma; Heiland (Freiburg, Germany)): 0% | 12 Mo. Overall Survival, All Pts (recurrent glioma; Heiland (Freiburg, Germany)): 10% | 12 Mo. Overall Survival, Methylated (recurrent glioma; Heiland (Freiburg, Germany)): 24% | 12 Mo. Progression Free Survival, All Pts (recurrent glioma; Heiland (Freiburg, Germany)): 0% | 12 Mo. Progression Free Survival, Methylated (recurrent glioma; Heiland (Freiburg, Germany)): 10% | 12 Mo. Progression Free Survival, Unmethylated (recurrent glioma; Heiland (Freiburg, Germany)): 0% | 6 mo OS (recurrent glioma; Taal (BELOB), All Pts): 62% | 6 mo PFS (recurrent glioma; Taal (BELOB), All Pts): 16% | 9 mo OS (recurrent glioma; Taal (BELOB), All Pts): 45% | 9 mo PFS (recurrent glioma; Taal (BELOB), All Pts): 8% | 6 mo OS (recurrent glioma; Taal (BELOB), Methylated): 83% | 6 mo PFS (recurrent glioma; Taal (BELOB), Methylated): 33% | 9 mo OS (recurrent glioma; Taal (BELOB), Methylated): 67% | 9 mo PFS (recurrent glioma; Taal (BELOB), Methylated): 22% | 6 mo OS (recurrent glioma; [15]): 50% | 6 mo PFS (recurrent glioma; [15]): 8% | 9 mo PFS (recurrent glioma; [15]): 0% | 6 mo Overall Survival, All Pts (recurrent glioma; Taal (BELOB)): 62% | 6 mo Overall Survival, Methylated (recurrent glioma; Taal (BELOB)): 83% | 6 mo Overall Survival, Unmethylated (recurrent glioma; Taal (BELOB)): 50% | 6 mo Progression Free Survival, All Pts (recurrent glioma; Taal (BELOB)): 16% | 6 mo Progression Free Survival, Methylated (recurrent glioma; Taal (BELOB)): 33% | 6 mo Progression Free Survival, Unmethylated (recurrent glioma; Taal (BELOB)): 8% | 9 mo Overall Survival, All Pts (recurrent glioma; Taal (BELOB)): 45% | 9 mo Overall Survival, Methylated (recurrent glioma; Taal (BELOB)): 67% | 9 mo Progression Free Survival, Methylated (recurrent glioma; Taal (BELOB)): 22% | 9 mo Progression Free Survival, Unmethylated (recurrent glioma; Taal (BELOB)): 0% | 12 Mo. Overall Survival, All Pts (recurrent glioma; Taal (BELOB)): 26% | 12 Mo. Overall Survival, Methylated (recurrent glioma; Taal (BELOB)): 56% | 12 Mo. Overall Survival, Unmethylated (recurrent glioma; Taal (BELOB)): 8% | 12 Mo. Progression Free Survival, Unmethylated (recurrent glioma; Taal (BELOB)): 0% | 6 mo PFS (recurrent glioma; Wick (EORTC 26101 P2), All Pts): 14% | 9 mo PFS (recurrent glioma; Wick (EORTC 26101 P2), All Pts): 9% | 6 mo PFS (recurrent glioma; [16]): 25% | 9 mo PFS (recurrent glioma; [16]): 9% | 6 mo PFS (recurrent glioma; [17]): 10% | 9 mo PFS (recurrent glioma; [17]): 10% | 6 mo Progression Free Survival, All Pts (recurrent glioma; Wick (EORTC 26101 P2)): 14% | 6 mo Progression Free Survival, Methylated (recurrent glioma; Wick (EORTC 26101 P2)): 25% | 6 mo Progression Free Survival, Unmethylated (recurrent glioma; Wick (EORTC 26101 P2)): 10% | 9 mo Progression Free Survival, All Pts (recurrent glioma; Wick (EORTC 26101 P2)): 9% | 9 mo Progression Free Survival, Methylated (recurrent glioma; Wick (EORTC 26101 P2)): 9% | 9 mo Progression Free Survival, Unmethylated (recurrent glioma; Wick (EORTC 26101 P2)): 10% | 12 Mo. Progression Free Survival, All Pts (recurrent glioma; Wick (EORTC 26101 P2)): 8% | 12 Mo. Progression Free Survival, Methylated (recurrent glioma; Wick (EORTC 26101 P2)): 9% | 12 Mo. Progression Free Survival, Unmethylated (recurrent glioma; Wick (EORTC 26101 P2)): 10% | 6-month progression-free survival (PFS) rate (recurrent glioma; recurrent G4 MG): ~43% | median overall survival (OS) (recurrent glioma; recurrent G4 MG): ~9 months
